In patent publication US8030341B2, “Dmt-derivative compounds and related compositions and methods of use” (priority 2005, dated 2011):
Counter-ions that a name gives are not always drawn. Like-named read-outs stand apart in the source and are kept apart here.

Assays:
[1] = biological target: T1, δ-opioid receptor (Rattus norvegicus, UniProt P33533); assay: opioid receptor binding competition assay, rat brain P2 synaptosomal membranes (δ)
T1 construct: from tissue; host or cells: rat brain P2 synaptosomal membranes (Sprague-Dawley)
T1 sequence (P33533 whole entry): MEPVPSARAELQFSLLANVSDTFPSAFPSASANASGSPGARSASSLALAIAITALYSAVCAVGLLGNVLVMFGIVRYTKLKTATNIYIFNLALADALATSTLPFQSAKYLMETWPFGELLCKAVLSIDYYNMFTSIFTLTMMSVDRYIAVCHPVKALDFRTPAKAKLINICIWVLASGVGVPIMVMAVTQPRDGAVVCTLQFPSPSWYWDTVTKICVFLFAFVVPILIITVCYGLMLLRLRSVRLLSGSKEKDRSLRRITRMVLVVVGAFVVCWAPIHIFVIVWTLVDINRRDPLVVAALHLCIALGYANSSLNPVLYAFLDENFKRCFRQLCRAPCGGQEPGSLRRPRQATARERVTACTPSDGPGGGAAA
Protocol: (§1) Synaptosomes were preincubated to remove endogenous opioids, washed in excess ice-cold buffer containing protease inhibitor and stored in a glycerol-containing buffer with protease inhibitor at −80° C. as described in Lazarus et al., J. Med. Chem. 34:1350-55 (1991). […] After incubation, the radiolabeled membranes were rapidly filtered on Whatman GF/C glass fiber filters presoaked in 0.1% polyethylenimine in order to optimize the signal-to-noise ratio, washed with ice-cold BSA buffer, and dried at 75-80° C. Radioactivity was determined using EcoLume (ICN, Costa Mesa, Calif.). All compounds were analyzed in duplicate using 5-8 peptide dosages and several synaptosomal preparations in independent repetitions to ensure statistical significance. The affinity constants (Ki) were calculated according to Cheng and Prusoff (Cheng et al., Biochem. Pharmacol., 22: 3099-3108 ([…])).

[2] = biological target: T2, μ-opioid receptor (Rattus norvegicus, UniProt P33535); assay: opioid receptor binding competition assay, rat brain P2 synaptosomal membranes (μ)
T2 construct: from tissue; host or cells: rat brain P2 synaptosomal membranes (Sprague-Dawley)
T2 sequence (P33535 whole entry): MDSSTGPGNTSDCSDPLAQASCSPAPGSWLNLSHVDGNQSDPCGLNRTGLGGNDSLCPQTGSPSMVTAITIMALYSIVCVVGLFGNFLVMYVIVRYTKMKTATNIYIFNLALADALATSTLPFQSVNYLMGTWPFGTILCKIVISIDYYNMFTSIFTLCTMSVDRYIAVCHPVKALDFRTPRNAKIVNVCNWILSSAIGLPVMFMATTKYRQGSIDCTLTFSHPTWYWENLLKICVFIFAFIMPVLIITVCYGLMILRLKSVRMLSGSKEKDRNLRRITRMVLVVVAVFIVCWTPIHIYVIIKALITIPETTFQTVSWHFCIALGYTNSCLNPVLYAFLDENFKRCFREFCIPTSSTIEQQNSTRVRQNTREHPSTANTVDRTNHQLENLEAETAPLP
Protocol: as §1

[3] = biological target: T3, δ-opioid receptor (Mus musculus, UniProt P32300); assay: mouse vas deferens (MVD) bioassay; assay type: cell-based; conditions: for IC50: read-out: MVD agonist IC50; for MVD Antagonist pA2: versus deltorphin II as agonist
T3 construct: from tissue; host or cells: isolated mouse vas deferens
T3 sequence (P32300 whole entry): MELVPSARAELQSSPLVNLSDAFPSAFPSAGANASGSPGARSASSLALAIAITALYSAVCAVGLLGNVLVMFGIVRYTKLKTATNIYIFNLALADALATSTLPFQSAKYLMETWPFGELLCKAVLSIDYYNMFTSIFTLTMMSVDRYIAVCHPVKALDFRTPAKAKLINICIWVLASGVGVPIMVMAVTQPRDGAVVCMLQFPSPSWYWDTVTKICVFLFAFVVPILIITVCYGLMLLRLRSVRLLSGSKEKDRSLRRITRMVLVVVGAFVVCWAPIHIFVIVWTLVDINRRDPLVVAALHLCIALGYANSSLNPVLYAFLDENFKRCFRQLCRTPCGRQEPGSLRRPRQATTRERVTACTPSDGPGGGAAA
From the text: Bioorg. Med. Chem., 11: 675-678 (2003). The isolated tissues were suspended in organ baths containing balanced salt solutions in a physiological buffer, pH 7.5. […]

[4] = biological target: μ-opioid receptor (Cavia porcellus, UniProt P97266); assay: guinea pig ileum (GPI) bioassay; assay type: cell-based; conditions: for IC50: read-out: GPI agonist IC50; for GPI Antagonist pA2 (nM), value in parentheses (Ke): versus endomorphin-2, antilog of pA2; for GPI Antagonist pA2: versus endomorphin-2 as agonist
μ-opioid receptor (Cavia porcellus, UniProt P97266), sequence (P97266 whole entry, looked up): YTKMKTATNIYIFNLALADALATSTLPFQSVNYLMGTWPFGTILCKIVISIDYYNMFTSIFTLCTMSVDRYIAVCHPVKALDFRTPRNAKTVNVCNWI
Protocol: The myenteric plexus longitudinal muscle preparations (2-3 cm segments) from the small intestine of male Hartley strain guinea pigs (GP1) measured μ-opioid receptor agonism and a single mouse vas deferens (MVD) was used to determine δ-opioid receptor agonism as described in Sasaki et al. Bioorg. […] The isolated tissues were suspended in organ baths containing balanced salt solutions in a physiological buffer, pH 7.5. Agonists were tested for the inhibition of electrically evoked contraction and expressed as IC50 (nM) obtained from the dose-response curves.

[5] = Table 1, rat brain synaptosomes, footnote a: versus [3H]DAMGO, read-out: Ki(δ)
[6] = Table 1, rat brain synaptosomes, footnote b: versus [3H]DPDPE, read-out: Ki(μ)
[7] = Table 2, inhibition of electrically evoked contraction
[8] = Table 2, versus deltorphin II, antilog of pA2

Molecule	Ki [1, 5] [nM]	Ki(μ)/Ki(δ) ([1]; Table 1, selectivity ratio)	Ki [2, 6] [nM]	IC50 [3, 7] [nM]	MVD Antagonist pA2 ([3]; Table 2)	MVD Antagonist pA2 (nM), value in parentheses (Ke) [3, 8] [nM]	IC50 [4, 7] [nM]	melting point	other results
3,6-Bis(Dmt-Tic-NH-butyl)-2(1H)-pyrazinone [Compound 11]	0.323 ± 0.007	5	1.74 ± 0.14	> 10000	11.06	0.0871	> 10000		
3,6-Bis(Dmt-Tic-NH-propyl)˜2(1H)-pyrazinone [Compound 10]	0.155 ± 0.016	20	3.08 ± 0.17	> 10000	10.56	0.0275	7020 ± 2470		
3-(Dmt-Tic-NH-butyl)-6-(Dmt-Tic-NH-propyl)-2(1H)-pyrazinone [Compound 13]	0.092 ± 0.01	25	2.28 ± 0.03	> 10000	10.47	0.0339	> 10000		GPI Antagonist pA2 (nM), value in parentheses (Ke) ([4]; Table 2): 112 nM; GPI Antagonist pA2 ([4]; Table 2): 6.95
3-(Dmt-Tic-NH-ethyl)-6-(Dmt-Tic-NH-butyl)-2(1H)-pyrazinone [Compound 14]	0.107 ± 0.007	13	1.37 ± 0.13	> 10000	10.99	0.0102	> 10000		
3-(Dmt-Tic-NH-propyl)-6-(Dmt-Tic-NH-butyl)-2(1H)-pyrazinone [Compound 12]	0.16 ± 0.025	10	1.56 ± 0.11	> 10000	10.60	0.0251	> 10000		
Cc1cc(O)cc(C)c1CC(N)C(=O)N1Cc2ccccc2CC1C(=O)NCc1[nH]c(=O)c(CNC(=O)C2Cc3ccccc3CN2C(=O)C(N)Cc2c(C)cc(O)cc2C)nc1C (stereo not drawn) (as salt: HCl) [Compound 8]								224 to 226 °C (dec.)	
Cc1cc(O)cc(C)c1CC(N)C(=O)N1Cc2ccccc2CC1C(=O)NCCCCNC(=O)C1Cc2ccccc2CN1C(=O)C(N)Cc1c(C)cc(O)cc1C (stereo not drawn) (as salt: HCl) [Compound 18, 1,4-Bis(Dmt-Tic-amino)butane]								215 to 217 °C	
Cc1cc(O)cc(C)c1CC(N)C(=O)N1Cc2ccccc2CC1C(=O)NCCCCCCNC(=O)C1Cc2ccccc2CN1C(=O)C(N)Cc1c(C)cc(O)cc1C (stereo not drawn) (as salt: HCl) [Compound 19, 1,6-Bis(Dmt-Tic-amino)hexane]								215 to 217 °C	
Cc1cc(O)cc(C)c1CC(N)C(=O)N1Cc2ccccc2CC1C(=O)NCCCCCCCCCCNC(=O)C1Cc2ccccc2CN1C(=O)C(N)Cc1c(C)cc(O)cc1C (stereo not drawn) (as salt: HCl) [Compound 20, 1,10-Bis(Drat-Tic-amino)decane]								205 to 207 °C	
Cc1cc(O)cc(C)c1CC(C(=O)N1Cc2ccccc2CC1C(=O)NCCCCCCNC(=O)C1Cc2ccccc2CN1C(=O)C(Cc1c(C)cc(O)cc1C)N(C)C)N(C)C (stereo not drawn) (as salt: HCl) [Compound 21, 1,6-Bis(N,N-Dimethyl-Dmt-Tic-NH)-hexane]								195 to 197 °C	
Cc1cc(O)cc(C)c1CC(N)C(=O)N1Cc2ccccc2CC1C(=O)NCc1[nH]c(=O)c(CNC(=O)C2Cc3ccccc3CN2C(=O)C(N)Cc2c(C)cc(O)cc2C)nc1C (stereo not drawn) [Compound 8]									Ki [1]: 0.163 ± 0.018 nM; Ki(μ)/Ki(δ) [1]: 23; Ki [2]: 3.76 ± 0.3 nM; MVD Antagonist pA2 (nM), value in parentheses (Ke) [3]: 11.22 (0.006) nM; IC50 [3]: > 10000 nM; IC50 [4]: > 10000 nM
Cc1cc(O)cc(C)c1CC(N)C(=O)N1Cc2ccccc2CC1C(=O)NCCc1cnc(CCNC(=O)C2Cc3ccccc3CN2C(=O)C(N)Cc2c(C)cc(O)cc2C)c(=O)[nH]1 (stereo not drawn) [Compound 9, 3,6-Bis(Dmt-Tic-NH-ethyl)-2(1H)-pyrazinone]	0.095 ± 0.0004	30	2.83 ± 0.12	> 10000	10.73	0.0186	> 10000		GPI Antagonist pA2 (nM), value in parentheses (Ke) ([4]; Table 2): 165 nM; GPI Antagonist pA2 ([4]; Table 2): 6.78
